Assays:
NCC-HN1 cells = assay: Cell proliferation assay (CellTitre-Glo), TKI and EV co-treatment, NCC-HN1; format: cell-based, human
Protocol: Extracellular vesicle (EV) collection and isolation were carried out as previously described*. Briefly, cells were grown in T-175 tissue culture flasks with conditioning medium (NCM). After 72 hours incubation, the NCM was collected and spun down at 1,200 rpm for 10 minutes to remove cell debris. The supernatant was then filtered through a 0.22 um filter (PES) and the filtrate was loaded into Amicon® Ultra-15 Centrifugal Filter Unit (Merck Millipore, Kenilworth, NJ). The medium was concentrated and subjected to a final wash with 1×PBS before reconstituting to 1/60 of the original volume. To reduce extracellular vesicle batch variation, every five extracellular vesicle batches were pooled into a single batch for analysis and treatment. *Reference: Rodrigues-Junior, D. M. et al. Circulating extracellular vesicle-associated TGFβ3 modulates response to cytotoxic therapy in head and neck squamous cell carcinoma. Carcinogenesis 1-13 (2019). doi:10.1093/carcin/bgz148
Cells were seeded in 100 μl complete growth medium at a density of 1,000-3,000 cells/well in 96-well tissue culture plates. Cells were washed with 1×PBS to remove remaining medium residue prior treatment. […] Plates were incubated for 72 hours at 37° C. after which cell viability was assessed using CellTitre-Glo® Luminescent Assay according to the manufacturer's protocol (Promega, Madison, WI).

[1] = Mouse body weight after afatinib and EV co-treatment; format: in vivo; details: daily oral afatinib with 72-hourly peri-tumoural EV injection
From the text: Arrow indicates commencement of daily oral afatinib administration with 72-hourly peri-tumoural extracellular vesicle (EV) injection. This confirms that the therapy delivered to the mice in FIG. 25 had minimal side effects/toxicity during the course of the experiment.

[2] = tested on: NCC-HN1, NCC-HN120M and NCC-HN182M cells; assay: Cell proliferation assay and IC50 determination, TKI and EV co-treatment, HNSCC cell line panel; format: cell-based, human
Protocol: To test the response of head and neck squamous cell carcinomas (HNSCC) cell lines to tyrosine kinase inhibitors (TKIs) in the presence of EGFR exosomal isoform D, three primary cell lines, namely NCC-HN1, NCC-HN120M and NCC-HN182M, were used. […] NCC-HN1, NCC-HN120M and NCC-HN182M cells were treated with eight tyrosine kinase inhibitors, each individually, in the presence of exosome (EV) derived from NCC-HN19 and NCC-HN137P cells.
Cells were seeded in 100 μl complete growth medium at a density of 1,000-3,000 cells/well in 96-well tissue culture plates. […] Plates were incubated for 72 hours at 37° C. after which cell viability was assessed using CellTitre-Glo® Luminescent Assay according to the manufacturer's protocol (Promega, Madison, WI).

In the case of O=C1NC(=NS(=O)(=O)c2cccc3ccccc23)S/C1=C\c1ccc(Br)cc1 [PitStop2], the “effect on the sensitising effect of isoform D containing EVs” value (NCC-HN1 cells; 1 μM PS2 with 293T pBob-IsoD EV) is reported as “reduces the sensitising effect of isoform D containing EVs”.

With CN(C)C/C=C/C(=O)Nc1cc2c(Nc3ccc(F)c(Cl)c3)ncnc2cc1O[C@H]1CCOC1 [afatinib] the mouse body weight [1] was “no changes in mouse body weight”.

For COc1cc2ncnc(Nc3ccc(F)c(Cl)c3)c2cc1NC(=O)/C=C/CN1CCCCC1 [dacomitinib], the “sensitivity of HNSCC cells to the TKI on co-treatment with exosomes containing overexpressed EGFR isoform D” value ([2]; EV from 293T, FIG. 11H (NCC-HN1 and NCC-HN120M)) was “sensitized” and the “sensitivity of TKI-resistant cells to the TKI on application of EVs from sensitive cells” value ([2]; EV from HN19 and HN137P applied to HN1, HN120M, HN182M) was “sensitises these resistant cells”.

In the case of COc1cc2ncnc(Nc3ccc(F)c(Cl)c3)c2cc1OCCCN1CCOCC1 [gefitinib], the “response of cells to TKI without exosome” value (NCC-HN1 cells; no exosome treatment) is reported as “normally resistant”.

From patent publication US12642838B2, “Method of modulating sensitivity to tyrosine kinase inhibitor” (SINGAPORE HEALTH SERVICES PTE LTD, priority 2020, dated 2026)
